The target in one test is T1, PDE10A (Homo sapiens, UniProt Q9Y233).
T1 construct: made in house; host or cells: SF21 insect cells (baculovirus)
Nature of the test: Inhibition of recombinant PDE10A (baculovirus/SF21 system), [3H]-cAMP SPA. The format is biochemical. Particulars: recombinant PDE10A1, cytosolic; 0.1 μM [3H]-cAMP, 37° C., 30 minutes; read-out: PDE10A IC50. On the procedure: Inhibition of Recombinant PDE10A (Baculovirus/SF21 System)
The gene was than inserted into a baculovirus vector, ligated with the baculovirus DNA. The enzyme-protein was expressed in SF21-cells. The enzyme was isolated from these cells by harvesting the cells by an centrifugation at 500 g to collect the cells.
The cells were resuspended in 50 mM Tris-HCl/1 mM EDTA/250 mM Sucrose buffer, pH=7.4 (Sigma, Deisenhofen, Germany; Merck, Darmstadt, Germany) and lysed by sonification of the cells (three times for 15 seconds, Labsonic U, Fa. Braun, Degersheim, Switzerland, level “high”). The cytosolic PDE10A was obtained by a centrifugation at 48,000 g for 1 h in the supernatant and stored at −70° C.
PDE activity was determined in a one step procedure in microtiter plates. The reaction mixture of 100 μl contained 50 mM Tris-HCl/5 mM MgCl2 buffer (pH=7.4, Sigma, Deisenhofen, Germany; Merck, Darmstadt, Germany) 0.1 μM [3H]-cAMP (Amersham, Buckinghamshire, UK) and the enzyme. Non-specific enzyme activity was determined without the enzyme. The reaction was initiated by addition of the substrate solution and was carried out at 37° C. for 30 minutes. Enzymatic activity then was stopped by addition of 25 μl Ysi-SPA-beads (Amersham-Pharmacia). One hour later the mixture was measured in a liquid scintillation counter for microtiter plates (Microbeta Trilux). The Biomek 2000 (Beckman) was used routinely for pipetting of the incubation mixture. […] For determination of IC50 values the Hill-plot, 2-parameter-model, was used.

In the next test the target is T2, PDE2A (Homo sapiens, UniProt O00408).
T2 construct: made in house; host or cells: SF21 insect cells (baculovirus)
In words: Inhibition of recombinant PDE2A (expressed in baculovirus/SF21-cells), [3H]-cAMP SPA. The format is biochemical. Here is the method:
Inhibition of Recombinant PDE2A (Expressed in Baculovirus/SF21-Cells)
PDE2A (NM002599) was cloned and the gene was inserted in the baculovirus and the enzyme-protein expressed in SF21-cells. The enzyme was isolated from these cells by harvesting the cells by an centrifugation at 200 g to collect the cells. The cells were resuspended in 50 mM Tris-HCl/5 mM MgCl2 buffer (pH=7.4) (Sigma, Deisenhofen, Germany; Merck, Darmstadt, Germany) and lysed by a sonication of the cells (three times for 15 seconds, Labsonic U, Fa. Braun, Degersheim, Switzerland, level “high”). The membrane fraction of PDE2A was obtained by a centrifugation at 48 000 g for 1 h, resuspended in buffer and stored at −70° C.
PDE2A activity was determined in a one step procedure in microtiterplates. The reaction mixture of 100 μl contained 50 mM Tris-HCl/5 mM MgCl2 buffer (pH=7.4) (Sigma, Deisenhofen, Germany; Merck, Darmstadt, Germany), 0.5 μM [3H]-cAMP (Amersham, Buckinghamshire, UK), 1000 nM cGMP and the enzyme. Non-specific enzyme activity was tested in the absence of cGMP. The reaction was initiated by addition of the substrate solution and was carried out at 37° C. for 30 minutes. Enzymatic activity then was stopped by addition of 25 μl SPA-beads (Amersham-Pharmacia). One hour later the mixture was measured in a liquid scintillation counter for microtiterplates (Microbeta Trilux). For pipetting of the incubation mixture the robot Biomek (Fa. Beckman) was routinely used.
For determination of IC50 values the Hill-plot, 2-parameter-model, was used.

Usually IC50 stands for the concentration needed to halve the response being measured.

T2 sequence (O00408 whole entry): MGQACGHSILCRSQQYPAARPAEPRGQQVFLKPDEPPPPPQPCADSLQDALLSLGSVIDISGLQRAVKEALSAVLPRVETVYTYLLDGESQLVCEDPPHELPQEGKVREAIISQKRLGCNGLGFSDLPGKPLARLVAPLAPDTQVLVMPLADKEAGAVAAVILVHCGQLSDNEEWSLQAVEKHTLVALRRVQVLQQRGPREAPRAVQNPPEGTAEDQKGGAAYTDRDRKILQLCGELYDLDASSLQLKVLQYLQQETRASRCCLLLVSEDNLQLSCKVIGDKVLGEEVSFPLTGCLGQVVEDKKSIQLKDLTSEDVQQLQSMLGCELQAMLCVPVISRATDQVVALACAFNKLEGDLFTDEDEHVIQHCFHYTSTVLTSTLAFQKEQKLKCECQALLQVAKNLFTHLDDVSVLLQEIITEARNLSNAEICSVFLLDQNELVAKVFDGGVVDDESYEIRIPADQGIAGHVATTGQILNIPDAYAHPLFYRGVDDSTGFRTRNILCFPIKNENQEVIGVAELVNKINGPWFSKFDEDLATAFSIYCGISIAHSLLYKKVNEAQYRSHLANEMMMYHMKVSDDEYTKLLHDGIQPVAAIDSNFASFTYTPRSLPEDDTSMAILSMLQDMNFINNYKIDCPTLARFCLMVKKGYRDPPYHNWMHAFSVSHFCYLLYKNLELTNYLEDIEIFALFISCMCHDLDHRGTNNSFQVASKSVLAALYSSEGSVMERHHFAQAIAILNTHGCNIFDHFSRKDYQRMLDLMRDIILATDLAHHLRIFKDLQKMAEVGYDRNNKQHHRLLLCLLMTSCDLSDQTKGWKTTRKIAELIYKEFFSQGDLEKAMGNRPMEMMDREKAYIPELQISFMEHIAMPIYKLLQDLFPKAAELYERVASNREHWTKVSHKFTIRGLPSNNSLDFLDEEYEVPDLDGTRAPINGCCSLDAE
T1 sequence (Q9Y233 1-779 isoform Q9Y233-1): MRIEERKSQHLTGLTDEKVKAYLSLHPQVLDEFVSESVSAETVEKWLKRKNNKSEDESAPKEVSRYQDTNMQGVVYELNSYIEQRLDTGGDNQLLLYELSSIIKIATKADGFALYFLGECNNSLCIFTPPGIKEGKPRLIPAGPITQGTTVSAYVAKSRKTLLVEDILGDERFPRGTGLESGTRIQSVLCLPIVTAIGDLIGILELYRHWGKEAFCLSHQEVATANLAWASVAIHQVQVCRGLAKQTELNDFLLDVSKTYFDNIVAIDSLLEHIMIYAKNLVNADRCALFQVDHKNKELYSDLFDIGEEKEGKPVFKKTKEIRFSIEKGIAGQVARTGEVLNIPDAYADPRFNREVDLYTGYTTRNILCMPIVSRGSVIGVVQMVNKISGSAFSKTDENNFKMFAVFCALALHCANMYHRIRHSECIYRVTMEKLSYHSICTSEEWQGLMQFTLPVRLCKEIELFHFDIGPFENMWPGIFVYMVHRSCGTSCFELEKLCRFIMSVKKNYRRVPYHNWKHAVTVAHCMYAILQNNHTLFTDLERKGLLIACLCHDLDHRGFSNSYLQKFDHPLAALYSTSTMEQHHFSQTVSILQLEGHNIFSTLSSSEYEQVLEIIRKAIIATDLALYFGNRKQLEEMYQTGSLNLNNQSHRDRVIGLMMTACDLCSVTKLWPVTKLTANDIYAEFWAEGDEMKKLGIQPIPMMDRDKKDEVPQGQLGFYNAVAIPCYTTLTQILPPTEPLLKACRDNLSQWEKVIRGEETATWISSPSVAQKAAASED

Consider `COc1cc(F)c2nnc3c(C)nc(-c4ccc(C)cc4F)n3c2c1` [Example 74, 6-fluoro-1-(2-fluoro-4-methylphenyl)-8-methoxy-3-methylimidazo[5,1-c][1,2,4]benzotriazine], for which the IC50 at PDE10A amounted to 0.0385 µM; on PDE2A it was 0.134 µM.
For `COc1cc(F)c2nnc3c(C)nc(-c4cc(C)ccc4F)n3c2c1` [Example 75, 6-fluoro-1-(2-fluoro-5-methylphenyl)-8-methoxy-3-methylimidazo[5,1-c][1,2,4]benzotriazine] the same measures were 0.015 µM and 0.0139 µM.
Taken in the same sequence, the figures for `COc1ccc(F)c(-c2nc(C)c3nnc4c(F)cc(OC)cc4n23)c1` [Example 76, 6-fluoro-1-(2-fluoro-5-methoxyphenyl)-8-methoxy-3-methylimidazo[5,1-c][1,2,4]benzotriazine] were 0.0096 µM and 0.0093 µM.
For `CCOc1ccc(Cl)c(-c2nc(C)c3nnc4c(F)cc(OC)cc4n23)c1` [Example 77, 1-(2-chloro-5-ethoxyphenyl)-6-fluoro-8-methoxy-3-methylimidazo[5,1-c][1,2,4]benzotriazine] the same measures were 0.0309 µM and 0.0103 µM.
On to `COc1ccc(Cl)c(-c2nc(C)c3nnc4c(F)cc(OC)cc4n23)c1` [Example 78, 1-(2-chloro-5-methoxyphenyl)-6-fluoro-8-methoxy-3-methylimidazo[5,1-c][1,2,4]benzotriazine], for which the half-inhibitory concentration (IC50) is 0.00851 µM at PDE10A and 0.00332 µM on PDE2A.
Regarding `COc1cc(F)c2nnc3c(C)nc(-c4cc(Cl)ccc4C)n3c2c1` [Example 79, 1-(5-chloro-2-methylphenyl)-6-fluoro-8-methoxy-3-methylimidazo[5,1-c][1,2,4]benzotriazine], the values for the half-maximal inhibitory concentration (IC50) at PDE10A and on PDE2A were 0.0152 µM and 0.00839 µM, respectively.
Turning to `COc1cc(F)c2nnc3c(C)nc(-c4cc(F)ccc4Cl)n3c2c1` [Example 80, 1-(2-chloro-5-fluorophenyl)-6-fluoro-8-methoxy-3-methylimidazo[5,1-c][1,2,4]benzotriazine], the IC50 at PDE10A is 0.00709 µM; on PDE2A it was 0.00943 µM.
Turning to `COc1cc(F)c2nnc3c(C)nc(-c4sccc4C)n3c2c1` [Example 81, 6-fluoro-8-methoxy-3-methyl-1-(3-methylthiophen-2-yl)imidazo[5,1-c][1,2,4]benzotriazine], the half-inhibitory concentration (IC50) at PDE10A came out at 0.00943 µM; at PDE2A, 0.0359 µM.
Take `COc1cc(F)c2nnc3c(C)nc(-c4cc(C(F)(F)F)ccc4Cl)n3c2c1` [Example 82, 1-[2-chloro-5-(trifluoromethyl)phenyl]-6-fluoro-8-methoxy-3-methylimidazo[5,1-c][1,2,4]benzotriazine]: the IC50 at PDE10A turned out to be 0.199 µM; at PDE2A, 0.0607 µM.
Consider `COc1cc(F)c2nnc3c(C)nc(-c4cc(OC(F)(F)F)ccc4Cl)n3c2c1` [Example 83, 1-[2-chloro-5-(trifluoromethoxy)phenyl]-6-fluoro-8-methoxy-3-methylimidazo[5,1-c][1,2,4]benzotriazine], for which the values for the IC50 on PDE10A and on PDE2A were 0.0657 µM and 0.0165 µM, respectively.
`COc1cc(F)c2nnc3c(C)nc(-c4cccc(F)c4C)n3c2c1` [Example 84, 6-fluoro-1-(3-fluoro-2-methylphenyl)-8-methoxy-3-methylimidazo[5,1-c][1,2,4]benzotriazine]: the results for the IC50 at PDE10A and on PDE2A were 0.0107 µM and 0.061 µM, respectively.
Consider `COc1cc(F)c2nnc3c(C)nc(-c4c(C)nn(C)c4C)n3c2c1` [Example 85, 6-fluoro-8-methoxy-3-methyl-1-(1,3,5-trimethyl-1H-pyrazol-4-yl)imidazo[5,1-c][1,2,4]benzotriazine], for which the IC50 on PDE10A was 0.0552 µM; on PDE2A, 0.0373 µM.
On to `COc1cc(F)c2nnc3c(C)nc(-c4ccccc4OC)n3c2c1` [Example 86, 6-fluoro-8-methoxy-1-(2-methoxyphenyl)-3-methylimidazo[5,1-c][1,2,4]benzotriazine], for which the IC50 on PDE10A came out at 0.00833 µM; at PDE2A, 3.39 µM.
Taken in the same sequence, the figures for `COc1cc(F)c2nnc3c(C)nc(-c4ccncc4)n3c2c1` [Example 87, 6-fluoro-8-methoxy-3-methyl-1-pyridin-4-ylimidazo[5,1-c][1,2,4]benzotriazine] were 0.246 µM and 1.25 µM.
In the case of `COc1cc(F)c2nnc3c(C)nc(-c4cc(Cl)ccc4F)n3c2c1` [Example 88, 1-(5-chloro-2-fluorophenyl)-6-fluoro-8-methoxy-3-methylimidazo[5,1-c][1,2,4]benzotriazine], the IC50 on PDE10A is 0.00799 µM; at PDE2A, 0.0142 µM.
Turning to `COc1cc(F)c2nnc3c(C)nc(-c4c(C)noc4C)n3c2c1` [Example 89, 1-(3,5-dimethylisoxazol-4-yl)-6-fluoro-8-methoxy-3-methylimidazo[5,1-c][1,2,4]benzotriazine], the IC50 at PDE10A was determined as 0.623 µM; at PDE2A, 0.819 µM.
`COc1cc(F)c2nnc3c(C)nc(-c4cccnc4)n3c2c1` [Example 90, 6-fluoro-8-methoxy-3-methyl-1-pyridin-3-ylimidazo[5,1-c][1,2,4]benzotriazine]: the IC50 on PDE10A is 0.386 µM; on PDE2A, 0.585 µM.
Taken in the same sequence, the figures for `COc1cc(F)c2nnc3c(C)nc(-c4sc(C)nc4C)n3c2c1` [Example 91, 1-(2,4-dimethyl-1,3-thiazol-5-yl)-6-fluoro-8-methoxy-3-methylimidazo[5,1-c][1,2,4]benzotriazine] were 0.0436 µM and 0.0561 µM.
Turning to `COc1cc(F)c2nnc3c(C)nc(-c4cnc(F)c(C)c4)n3c2c1` [Example 92, 6-fluoro-1-(6-fluoro-5-methylpyridin-3-yl)-8-methoxy-3-methylimidazo[5,1-c][1,2,4]benzotriazine], the values for the IC50 at PDE10A and at PDE2A were 0.523 µM and 0.469 µM, respectively.
For `COc1cc(F)c2nnc3c(C)nc(-c4ccc(F)nc4C)n3c2c1` [Example 93, 6-fluoro-1-(6-fluoro-2-methylpyridin-3-yl)-8-methoxy-3-methylimidazo[5,1-c][1,2,4]benzotriazine] the same measures were 0.252 µM and 0.312 µM.
Taken in the same sequence, the figures for `COc1cc(F)c2nnc3c(C)nc(-c4cccnc4F)n3c2c1` [Example 94, 6-fluoro-1-(2-fluoropyridin-3-yl)-8-methoxy-3-methylimidazo[5,1-c][1,2,4]benzotriazine] were 0.122 µM and 0.127 µM.
For `COc1cncc(-c2nc(C)c3nnc4c(F)cc(OC)cc4n23)c1` [Example 95, 6-fluoro-8-methoxy-1-(5-methoxypyridin-3-yl)-3-methylimidazo[5,1-c][1,2,4]benzotriazine] the same measures were 0.0455 µM and 0.0394 µM.
As for `COc1cc(F)c2nnc3c(C)nc(-c4c(C)n[nH]c4C)n3c2c1` [Example 96, 1-(3,5-dimethyl-1H-pyrazol-4-yl)-6-fluoro-8-methoxy-3-methylimidazo[5,1-c][1,2,4]benzotriazine], the IC50 was found to be 0.0531 µM at PDE10A and 0.0403 µM at PDE2A.
Taken in the same sequence, the figures for `COc1cc(F)c2nnc3c(C)nc(-c4cnccc4C)n3c2c1` [Example 97, 6-fluoro-8-methoxy-3-methyl-1-(4-methylpyridin-3-yl)imidazo[5,1-c][1,2,4]benzotriazine] were 0.146 µM and 0.146 µM.
As to `COc1cc(F)c2nnc3c(C)nc(-c4cc(C(N)=O)ccc4F)n3c2c1` [Example 98, 4-fluoro-3-(6-fluoro-8-methoxy-3-methylimidazo[5,1-c][1,2,4]benzotriazin-1-yl)benzamide], the 50% inhibitory concentration (IC50) worked out at 0.0154 µM at PDE10A and 0.045 µM at PDE2A.
Taken in the same sequence, the figures for `COc1cccc(-c2nc(C)c3nnc4c(OC)cc(F)cc4n23)c1` [Example 99, 8-fluoro-6-methoxy-1-(3-methoxyphenyl)-3-methylimidazo[5,1-c][1,2,4]benzotriazine] were 0.00911 µM and 20 µM.

Values taken from patent US20100120763A1, “IMIDAZO[5,1-C][1,2,4]BENZOTRIAZINE DERIVATIVES AS INHIBITORS OF PHOSPHODIESTERASES” (priority 2008, published 2010).
